The values that follow are results of earlier work, collected in patent US6683076B2, “Methods for therapeutic use of glucosylceramide synthesis inhibitors and composition thereof” (Oxford Glyco-Sciences (UK) Ltd, priority 2000, dated 2004).

For the data set the following is noted: patients with Parkinson's disease, stroke and spinal cord injuries; cited from earlier work.

Regarding GM1 ganglioside, the Neurodegenerative processes entry is “seem to improve”.
